Literature values as cited in patent US6414139B1, “Silicon amphiphilic compounds and the use thereof” (Imarx Therapeutics, Inc., priority 1996, dated 2002).

Settings: gel state to liquid crystalline state; CRC Handbook of Lipid Bilayers p. 139

Row | Main Phase Transition Temperature [°C] | SMILES
1 | 79.5 | CCCCCCCCCCCCCCCCCCCCCCC(=O)OC[C@H](COP(=O)([O-])OCC[N+](C)(C)C)OC(=O)CCCCCCCCCCCCCCCCCCCCCC [1,2-(23:0)]
2 | 80.1 | CCCCCCCCCCCCCCCCCCCCCCCC(=O)OC[C@H](COP(=O)([O-])OCC[N+](C)(C)C)OC(=O)CCCCCCCCCCCCCCCCCCCCCCC [1,2-(24:0)]
